Source: ChEMBL document CHEMBL1201862, “PubChem BioAssay data set” (2004)
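Growth conditions: 96-well plates. Treatment: test compound, 48 hours, 5 concentrations. Analysis: linear interpolation between bracketing concentrations; unreached endpoints set to highest concentration. GI50 = concentration required for 50% inhibition of growth.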 The source made the active and inactive calls. Rule as the data show it: active = GI50 up to about 1.1 µM and inactive = higher.

What was measured:
Assay in all cases: NCI anticancer screen, dose series, 48 h
ACHN = system: ACHN
MDA-MB-231 = system: MDA-MB-231
SR = system: SR
LOX IMVI = system: LOX IMVI
COLO 205 = system: COLO 205
SNB-19 = system: SNB-19
NCI-H226 = system: NCI-H226
U-251 = system: U-251
A498 = system: A498
MOLT-4 = system: MOLT-4
HOP-62 = system: HOP-62
Malme-3M = system: Malme-3M
NCI/ADR-RES = system: NCI/ADR-RES
SNB-75 = system: SNB-75
MCF7 = system: MCF7
SF-539 = system: SF-539
SK-OV-3 = system: SK-OV-3
A549 = system: A549

Measured: GI50

CCC(C)[C@H]1C(=O)N=C(N)N1C(=O)OCc1ccccc1 (some centres not stated)
inactive: ACHN > 100 µM | MDA-MB-231 > 100 µM | SR > 100 µM | LOX IMVI > 100 µM | COLO 205 > 100 µM | SNB-19 > 100 µM | NCI-H226 > 100 µM | U-251 > 100 µM | A498 > 100 µM | MOLT-4 > 100 µM | HOP-62 > 100 µM | Malme-3M > 100 µM | NCI/ADR-RES > 100 µM | SNB-75 > 100 µM | MCF7 > 100 µM

O=C1c2cc3c(cc2CC12Cc1cc4c(cc1C2)CCC4)CCC3
inactive: ACHN > 100 µM | MDA-MB-231 > 100 µM | SR > 100 µM | LOX IMVI > 100 µM | COLO 205 > 100 µM | SF-539 > 100 µM | SNB-19 > 100 µM | SK-OV-3 > 100 µM | U-251 > 100 µM | A498 > 100 µM | MOLT-4 49 µM | HOP-62 > 100 µM | Malme-3M > 100 µM | NCI/ADR-RES > 100 µM | SNB-75 > 100 µM | A549 > 100 µM | MCF7 > 100 µM

Cc1cc2nc3ccccc3n2c2nc(N)ccc12
inactive: ACHN 15.4 µM | MDA-MB-231 58.2 µM | SR 13.5 µM | LOX IMVI 22.1 µM | COLO 205 32.9 µM | SF-539 26.5 µM | SNB-19 20.6 µM | NCI-H226 27.2 µM | A498 46.1 µM | MOLT-4 17.7 µM | HOP-62 26.3 µM | NCI/ADR-RES 23.2 µM | SNB-75 > 100 µM | A549 30.9 µM | MCF7 44 µM

C/C(Cl)=N\OC(=O)Nc1ccccc1C(F)(F)F
inactive: ACHN 18.1 µM | MDA-MB-231 22.6 µM | SR 17.1 µM | LOX IMVI 14.9 µM | COLO 205 21.6 µM | SF-539 > 100 µM | SNB-19 > 100 µM | SK-OV-3 > 100 µM | U-251 > 100 µM | A498 > 100 µM | MOLT-4 18.5 µM | Malme-3M 20.9 µM | NCI/ADR-RES 19.3 µM | SNB-75 20.9 µM | A549 > 100 µM | MCF7 14.9 µM

C=COC(=O)N1C2CCCC(Cl)(C(C)=O)C1CC2 (configuration not stated)
inactive: ACHN > 100 µM | MDA-MB-231 > 100 µM | SR > 100 µM | LOX IMVI > 100 µM | COLO 205 > 100 µM | SNB-19 > 100 µM | SK-OV-3 > 100 µM | NCI-H226 > 100 µM | U-251 > 100 µM | A498 > 100 µM | MOLT-4 > 100 µM | HOP-62 > 100 µM | Malme-3M 87.5 µM | NCI/ADR-RES > 100 µM | SNB-75 28.2 µM | A549 > 100 µM | MCF7 > 100 µM

CCC(CC)C(=O)OC[n+]1ccc(-c2c(COC(=O)NC(C)C)c(COC(=O)NC(C)C)c3n2CCC3)cc1
inactive: MDA-MB-231 > 100 µM | SR 36.7 µM | COLO 205 > 100 µM | SF-539 > 100 µM | SNB-19 > 100 µM | SK-OV-3 > 100 µM | NCI-H226 > 100 µM | U-251 > 100 µM | A498 > 100 µM | MOLT-4 > 100 µM | HOP-62 > 100 µM | NCI/ADR-RES > 100 µM | A549 > 100 µM | MCF7 > 100 µM

C=C(Br)C(C)(Cl)CCC(Br)C(C)(C)Cl (configuration not stated)
inactive: ACHN 29.6 µM | MDA-MB-231 42.3 µM | SR > 100 µM | LOX IMVI 17.6 µM | COLO 205 27 µM | SF-539 74.8 µM | SNB-19 > 100 µM | SK-OV-3 > 100 µM | NCI-H226 25.6 µM | U-251 > 100 µM | A498 > 100 µM | MOLT-4 32.3 µM | HOP-62 41.2 µM | Malme-3M 23.4 µM | NCI/ADR-RES 72.1 µM | A549 36.1 µM | MCF7 55.3 µM

CC(C)C(=O)OCN(C)c1nc(N(C)COC(=O)C(C)C)nc(N(C)COC(=O)C(C)C)n1
inactive: ACHN 32 µM | MDA-MB-231 25.2 µM | SR 22.8 µM | LOX IMVI 14.6 µM | COLO 205 20.1 µM | SF-539 23.2 µM | SNB-19 42.1 µM | NCI-H226 41.4 µM | A498 36 µM | MOLT-4 22.3 µM | HOP-62 33.2 µM | NCI/ADR-RES 34.8 µM | SNB-75 17.8 µM | A549 43.1 µM | MCF7 35.6 µM

O=C(O)CSC(CC1(c2ccc(Cl)cc2)NC(=O)CS1)c1ccc(Cl)cc1 (configuration not stated)
inactive: ACHN > 100 µM | MDA-MB-231 > 100 µM | SR > 100 µM | LOX IMVI > 100 µM | COLO 205 > 100 µM | SF-539 > 100 µM | SNB-19 > 100 µM | SK-OV-3 > 100 µM | U-251 89.7 µM | A498 > 100 µM | MOLT-4 > 100 µM | HOP-62 > 100 µM | NCI/ADR-RES > 100 µM | SNB-75 > 100 µM | A549 > 100 µM | MCF7 77.1 µM

CCOC(=O)CNC(=O)C(C)NC(=O)C(NC(=O)CC(c1ncc[nH]1)c1ncc[nH]1)C(C)CC (configuration not stated)
inactive: ACHN > 100 µM | MDA-MB-231 > 100 µM | SR > 100 µM | LOX IMVI > 100 µM | COLO 205 > 100 µM | SF-539 > 100 µM | SNB-19 > 100 µM | SK-OV-3 > 100 µM | U-251 > 100 µM | A498 > 100 µM | MOLT-4 > 100 µM | Malme-3M > 100 µM | NCI/ADR-RES > 100 µM | SNB-75 > 100 µM | A549 > 100 µM | MCF7 > 100 µM

N=C(N)SCCc1ccncc1
inactive: ACHN > 100 µM | MDA-MB-231 > 100 µM | SR > 100 µM | LOX IMVI > 100 µM | COLO 205 > 100 µM | SF-539 > 100 µM | SNB-19 > 100 µM | SK-OV-3 > 100 µM | NCI-H226 > 100 µM | U-251 > 100 µM | A498 > 100 µM | MOLT-4 > 100 µM | HOP-62 > 100 µM | NCI/ADR-RES > 100 µM | SNB-75 > 100 µM | A549 > 100 µM | MCF7 > 100 µM

COc1ccc(N2C(=O)C3c4[nH]c5c(C)cccc5c4C4CCC(C(C)C)CC4C3C2=O)cc1 (configuration not stated)
inactive: ACHN 13.7 µM | MDA-MB-231 5.96 µM | SR 4.68 µM | LOX IMVI 3.59 µM | COLO 205 12.4 µM | SNB-19 22.1 µM | SK-OV-3 16.4 µM | NCI-H226 13.9 µM | U-251 10 µM | A498 14 µM | MOLT-4 2.12 µM | HOP-62 10 µM | Malme-3M 13.4 µM | NCI/ADR-RES 16.1 µM | SNB-75 4.06 µM | A549 5.41 µM | MCF7 5.02 µM
